Experiment [1] concerns AU565 breast cancer cell line. Kind of experiment: Proliferation of AU565 cancer cells, Promega cell titer assay. The settings on record: 96 hours, negative number = increase. It is filed as cell-based. Here is the method: Assays were performed to determine the effect of Cpd. 5 (synthesis described in Example 1) on proliferation of two cancer cell lines. These two cell lines were STTG grade 4 astrocytoma cell line and AU565 breast cancer cell line. Both cell lines were obtained from American Type Culture Collection, Rockville, Md. (ATCC).
To perform the assays, a 50 mM stock solution of Cpd. 5 was prepared in DMSO and frozen at −80° C. Aliquots of the stock solution were removed and 100 μM dilutions were made in Iscove's modified Dulbecco's medium (IMDM; obtained from ATCC) supplemented with 10% fetal bovine serum (FBS) and penicillin/streptomycin solution. Controls containing equivalent amounts of DMSO to the 100 μM solution were mixed for comparative purposes. 100 μl of the resulting solutions were then added to 96 well culture plates in triplicate and placed in a 37° C. incubator with 5% CO2 to warm.
At this point, cells were removed from passage flasks using trypsin and counted using trypan blue to establish cell counts/ml and viability. For all experiments, viability of cells was greater than 95%. Solutions of 4,000 cells/100 μl were prepared in the medium from above and 100 μl of the solutions were added to each well of the plates. The plates were placed back in the incubator and incubated with the compounds for 96 hours.
Following incubation, cell proliferation was assayed by adding 20 μl Promega cell titer aqueous one reagent to each well. […] The plates were incubated at 37° C. for an additional 4-18 hours to allow the colorimetric assay to develop, and the OD of each well was determined in a microplate reader using a 530 nm filter. The OD of wells containing cell titer reagent in culture medium with no cells was subtracted from the OD of all experimental readings.
The % decrease of the total cell titer signal was determined using the following formula. […] The p values were calculated versus diluent controls.

Another experiment relates to Akt. In words: Akt phosphorylation in AU565 breast cancer cells, CASE ELISA (S473). It is filed as cell-based. The settings on record: Homo sapiens, IGF-1 stimulated; for inhibition at 50 µM: AU565, 50 μM. The procedure: Assays were performed to determine the effect of Cpd. 5 (synthesis described in Example 1) on phosphorylation of Akt in the AU565 breast cancer cell line. Akt (or protein kinase B, PKB) is a serine/threonine kinase that promotes cellular survival. Akt is activated in response to many different growth factors, including IGF-1, EGF, bFGF, insulin, interleukin-3 (IL-3), IL-6, heregulin and VEGF. Akt has three isoforms, and activation of all three isoforms is similar in that phosphorylation of two sites is necessary for full activity. Once activated, Akt exerts anti-apoptotic effects through phosphorylation of substrates that directly or indirectly regulate apoptosis. Activation of the phosphatidylinositol 3 kinase (PI3K)/Akt signaling pathway contributes to tumorigenesis in many types of tissues, including breast, ovarian, brain, prostate and lymph tissues.
AU565 cells were grown in 75 cm^2 flasks using Iscove's modified Dulbecco's medium (IMDM; obtained from Lonza) supplemented with 10% fetal bovine serum (FBS, HyClone) and 1% penicillin/streptomycin solution (Lonza). Cells were removed from the flasks using trypsin/EDTA (Lonza) and counted using trypan blue to establish cell counts. […]
Following this incubation, 100 μl of serum-free IMDM containing either 0 or 400 ng/ml insulin-like growth factor-1 (IGF-1) (obtained from Sigma), an Akt phosphorylation promoter, were added, and the plates incubated at 37° C., 5% CO2, for 1 more hour. At the end of this time, the cells were fixed immediately with 4% formaldehyde, refrigerated, and the extent of phosphorylation of Akt determined using the Akt Cellular Activation of Signaling ELISA (CASE™ Kit for AKT […]; SABiosciences, Frederick, Md.) following the manufacturer's protocols. The CASE™ Kit for AKT S473 quantifies the amount of activated (phosphorylated) Akt protein relative to total Akt protein in parallel assays using a conventional ELISA format with colorimetric detection. […] Both primary antibodies are detected using a horseradish peroxidase-labeled secondary antibody. […]
The results were calculated as follows. […]
For orientation: ELISA stands for enzyme-linked immunosorbent assay.

Consider 2 compounds from patent publication US8871772B2, “Therapeutic methods and compounds” (Ampio Pharmaceuticals, Inc., priority 2008, dated 2014).

The inhibition is the drop in the measured response relative to a control, in per cent. With `COC(=O)C(c1ccc(-c2ccccc2)cc1)C1NC(=O)CNC1=O` (centres unmarked) [Cpd. 5, biphenyl-4-yl-(3,6-dioxo-piperazin-2-yl)-acetic acid methyl ester], in experiment [1] (AU565, 50 μM), the “MEAN % DECREASE of cell titer signal” value is on record as 13.44%. In the experiment with Akt (AU565, 10 μM), the inhibition at 10 µM came to 104%. Also, in the experiment on Akt, the inhibition at 50 µM came out at 92%.
Regarding `O=c1cc(N2CCOCC2)oc2c(-c3ccccc3)cccc12` [LY294002, reference compound], the “MEAN % DECREASE of cell titer signal” value in experiment [1] (AU565, 20 μM) is reported as 61.95%. Besides, the inhibition at 50 µM in the experiment with Akt was 92.4%.
